The source of these data is PMC10054758, “A Structural-Reporter Group to Determine the Core Conformation of Sialyl Lewis^x Mimetics” (Molecules, 2023).

Like-named read-outs stand apart in the source and are kept apart here.

The target in assay [1] is T1, E-selectin (Homo sapiens, UniProt P16581).
T1 construct: mixed 1:1 with a solution of 0.2 μM labeled E-SelectinSCR2; made in house
T1 sequence (P16581 22-301 limits assumed): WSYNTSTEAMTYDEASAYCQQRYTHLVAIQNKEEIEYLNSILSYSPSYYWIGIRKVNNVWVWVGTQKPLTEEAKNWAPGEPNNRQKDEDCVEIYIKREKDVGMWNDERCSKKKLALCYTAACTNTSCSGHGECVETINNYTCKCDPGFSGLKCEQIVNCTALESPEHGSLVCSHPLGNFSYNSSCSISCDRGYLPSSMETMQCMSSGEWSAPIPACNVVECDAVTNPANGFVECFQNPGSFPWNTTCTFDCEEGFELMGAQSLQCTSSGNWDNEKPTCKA
Nature of the assay: E-selectin affinity, literature data. It is filed as binding. Conditions: for ΔG (Gibbs Free Energy): calculated ΔG = -RT lnKD from literature KD.

In assay [2] the target is T1, E-selectin. Put plainly: Microscale thermophoresis (MST) affinity measurement. Type of assay: binding. Conditions: for Kd: MST, 25 °C, labeled E-selectinSCR2. How it is done:
E-selectin production (cloning, transfection, expression, and purification) and labeling were previously described for the E-selectinSCR6-IgGFc construct and for the E-selectinSCR2 construct.
E-selectinLEC2 was labeled using the amine reactive protein labeling kit BLUE-NHS as described in the Supporting Information. Buffer exchange and labeling were performed according to the manufacturer’s protocol. […] The labeled protein was dialyzed over night against assay buffer (10 mM HEPES pH 7.4, 150 mM NaCl, 1 mM CaCl2) using Slide-A-Lyzer dialysis cassettes (10 kDa MWCO). Protein concentration was determined by HPLC-UV against a BSA standard.
Microscale thermophoresis (MST) experiments were carried out at 25 °C with 100% LED power, 50% laser power, a laser on time of 30 s, and a laser off time of 5 sec using standard treated capillaries. Ligands were dissolved in assay buffer supplemented with 0.05% v/v Tween20 and titrated 1:1 for a total of 16 dilution steps. The dilution series of ligand was mixed 1:1 with a solution of 0.2 μM labeled E-SelectinSCR2 and incubated for 10 min at room temperature before measurement. Datapoints were normalized using the bound and unbound borders achieved by NanoTemper Analysis 1.2.205 software (NanoTemper Technologies GmbH, Munich, Germany) and analyzed/illustrated with GraphPad Prism 5.0 (GraphPad Software, La Jolla, CA, USA). The measurements were globally fitted using Equation (1) for single site binding. (1) PL=(CP+CL+KD) - (CP+CL+KD) - 4CPCL/2CP where [PL] is the protein–ligand complex concentration and KD is the dissociation constant. CP represents the total concentration of protein and CL the total concentration of ligand.
Background: MST reads how a fluorescent partner responds to local heating, with and without ligand.

Assay [3] deals with T1, E-selectin. Conditions: literature data; cited from earlier work.
For assay [4], the target named is T1, E-selectin. Also on record: method as in PMID 22782926. The conditions noted are these: binding to E-selectin; cited from earlier work.

For `C[C@@H]1O[C@@H](O[C@@H]2CCCC[C@H]2O[C@@H]2O[C@H](CO)[C@H](O)[C@H](O[C@@H](CC3CCCCC3)C(=O)O)[C@H]2O)[C@@H](O)[C@H](O)[C@@H]1O` [2a], the improvement of affinity entry on E-selectin [1] (GlcNAc replaced by (R,R)-cyclohexane-1,2-diol (22→2a)) is on record as “five-fold”; on E-selectin [1] (compared to 21) it was 80 fold. At E-selectin [1], the “ΔG (Gibbs Free Energy)” value is -24.06 kJ/mol. Further, the ΔΔG at E-selectin [1] (relative to 21 (ΔΔG21→2a)) was 10.89 kJ/mol.

Regarding `CC(C)[C@H]1CCC[C@@H](O[C@@H]2O[C@H](CO)[C@H](O)[C@H](O[C@@H](CC3CCCCC3)C(=O)O)[C@H]2O)[C@@H]1O[C@@H]1O[C@@H](C)[C@@H](O)[C@@H](O)[C@@H]1O` [2d], the Kd (usually the equilibrium constant for the complex coming apart) on E-selectin [2] amounted to 6.8 µM.

For the molecule `C[C@@H]1O[C@@H](O[C@@H]2[C@@H](Cc3ccccc3)CCC[C@H]2O[C@@H]2O[C@H](CO)[C@H](O)[C@H](O[C@@H](CC3CCCCC3)C(=O)O)[C@H]2O)[C@@H](O)[C@H](O)[C@@H]1O` [2e], the Kd at E-selectin [2] is 18 µM.

`C[C@@H]1O[C@@H](O[C@@H]2[C@@H](CC3CCCCC3)CCC[C@H]2O[C@@H]2O[C@H](CO)[C@H](O)[C@H](O[C@@H](CC3CCCCC3)C(=O)O)[C@H]2O)[C@@H](O)[C@H](O)[C@@H]1O` [2f] came in with a dissociation constant Kd on E-selectin [2] of 14 µM.

At E-selectin [2], `C[C@@H]1O[C@@H](O[C@@H]2[C@@H](c3ccccc3)CCC[C@H]2O[C@@H]2O[C@H](CO)[C@H](O)[C@H](O[C@@H](CC3CCCCC3)C(=O)O)[C@H]2O)[C@@H](O)[C@H](O)[C@@H]1O` [2g] had a Kd of 8.8 µM.

Molecule `C[C@@H]1O[C@@H](O[C@H]2[C@H](O[C@@H]3O[C@H](CO)[C@H](O)[C@H](O[C@@H](CC4CCCCC4)C(=O)O)[C@H]3O)CCC[C@@H]2C(C)(C)C)[C@@H](O)[C@H](O)[C@@H]1O` [2h] displayed a Kd at E-selectin [2] of 51 µM.

Regarding `CCCC[C@H]1CCC[C@@H](O[C@@H]2O[C@H](CO)[C@H](O)[C@H](O[C@@H](CC3CCCCC3)C(=O)O)[C@H]2O)[C@@H]1O[C@@H]1O[C@@H](C)[C@@H](O)[C@@H](O)[C@@H]1O` [2i], the Kd at E-selectin [2] was found to be 5.4 µM.

`CCCCCC[C@H]1CCC[C@@H](O[C@@H]2O[C@H](CO)[C@H](O)[C@H](O[C@@H](CC3CCCCC3)C(=O)O)[C@H]2O)[C@@H]1O[C@@H]1O[C@@H](C)[C@@H](O)[C@@H](O)[C@@H]1O` [2j] had a Kd at E-selectin [2] of 4.3 µM. The “ΔG (Gibbs Free Energy)” value at E-selectin [2] (calculated ΔG = -RT lnKD from MST KD) was -30.63 kJ/mol. On E-selectin [2] (relative to 2a (ΔΔG2a→2b, ΔΔG2a→2j)), this molecule yielded a ΔΔG of 6.57 kJ/mol.

Turning to `C[C@@H]1O[C@@H](O[C@@H]2[C@@H](CCCc3ccccc3)CCC[C@H]2O[C@@H]2O[C@H](CO)[C@H](O)[C@H](O[C@@H](CC3CCCCC3)C(=O)O)[C@H]2O)[C@@H](O)[C@H](O)[C@@H]1O` [2k], the Kd at E-selectin [2] was 28 µM.

`COCCOC[C@H]1CCC[C@@H](O[C@@H]2O[C@H](CO)[C@H](O)[C@H](O[C@@H](CC3CCCCC3)C(=O)O)[C@H]2O)[C@@H]1O[C@@H]1O[C@@H](C)[C@@H](O)[C@@H](O)[C@@H]1O` [2l] showed a Kd at E-selectin [2] of 31 µM.

As for `CC(C)C[C@H]1CCC[C@@H](O[C@@H]2O[C@H](CO)[C@H](O)[C@H](O[C@@H](CC3CCCCC3)C(=O)O)[C@H]2O)[C@@H]1O[C@@H]1O[C@@H](C)[C@@H](O)[C@@H](O)[C@@H]1O` [2m], the equilibrium dissociation constant (Kd) on E-selectin [2] was 6 µM.

Consider `C[C@@H]1O[C@@H](O[C@@H]2[C@@H](CC(F)(F)F)CCC[C@H]2O[C@@H]2O[C@H](CO)[C@H](O)[C@H](O[C@@H](CC3CCCCC3)C(=O)O)[C@H]2O)[C@@H](O)[C@H](O)[C@@H]1O` [2n], for which, at E-selectin [2], binding was characterised by a dissociation constant (Kd) of 9.5 µM.

For the molecule `C[C@@H]1O[C@@H](OCCO[C@@H]2O[C@H](CO)[C@H](O)[C@H](O[C@@H](CC3CCCCC3)C(=O)O)[C@H]2O)[C@@H](O)[C@H](O)[C@@H]1O` [compound 21, reference compound], the “ΔG (Gibbs Free Energy)” value on E-selectin [1] was -13.17 kJ/mol. For the same molecule, the Kd on E-selectin [3] was 4920 µM.

On to `CO[C@@H]1O[C@H](CO)[C@@H](O[C@@H]2O[C@H](CO)[C@H](O)[C@H](O[C@@H](CC3CCCCC3)C(=O)O)[C@H]2O)[C@H](O[C@@H]2O[C@@H](C)[C@@H](O)[C@@H](O)[C@@H]2O)[C@H]1NC(C)=O` [compound 22], for which the Kd on E-selectin [3] is 280 µM.

Turning to `COC1OC(CO)C(OC2OC(CO)C(O)C(OC3(C(=O)O)CC(O)C(NC(C)=O)C(C(O)C(O)CO)O3)C2O)C(OC2OC(C)C(O)C(O)C2O)C1NC(C)=O` (stereo not shown) [sLe^x (1), sialyl Lewis^x], the Kd on E-selectin [3] is 877 µM. The “entropy term −TΔS°” value on E-selectin [4] was 22.6 kJ/mol.
